Each block holds one molecule with its values, some of them ahead of it.
How the values were obtained:
[1] = system: serpin-3∆N; experiment: Time course of inactivation of serpin-3∆N by pentapeptides; format: biochemical, Manduca sexta; conditions: peptide 400 nmol, serpin-3∆N 720 ng, 37 °C; for suppression of serpin-3∆N inhibitory activity by 40 min: aliquots with 72 ng PAP3 10 min room temperature, IEARase activity
Experimental: To examine the time course of peptide interaction with serpin-3ΔN, pre-dried Ac-SVAFS-NH2 or Ac-SVAFS-COO^- (400 nmol) were incubated with 40 μL purified serpin-3ΔN (720 ng) supplemented with 40 μL BSA (80 μg) at 37 °C for 1 h. At 0, 10, 20, 40 and 60 min, 12 μL aliquots were withdrawn and immediately incubated with 72 ng of PAP3 at room temperature for 10 min, followed by measuring residual PAP3 activity with […] in 0.1 M Tris, 0.1 M NaCl, 5 mM CaCl2, pH 8.0.

[2] = system: proPO activation system in plasma; experiment: proPO activation in plasma with added serpin-3∆N, untreated or pre-incubated with peptide; format: biochemical, Manduca sexta; conditions: peptide 10 nmol pre-incubated with serpin-3∆N 0.1 µg at 37 °C 2 h, 2 µl plasma, one unit = 0.001 change of OD470 per minute, mean ± SD, n = 4 larvae
Experimental: Hemolymph was collected from day 2 fifth instar larvae and centrifuged at 12,000 rpm for 25 min at 4 °C to remove hemocytes, to prepare plasma samples containing the proPO activation system. To examine the effect of pre-incubation of peptide with serpin before exposure to plasma, Ac-SVAFS-COO^− (10 nmol in TFE) or TFE alone were dried in wells of a 96-well plate and then incubated with 4 µL serpin-3ΔN (0.1 µg) at 37 °C for 2 h, followed by incubation with 2 μl plasma at room temperature for 10 min. Then the proPO cascade was stimulated by addition of 1 μg Micrococcus luteus to activate the proPO protease cascade or filter-sterilized 0.85% NaCl as a control. These mixtures were incubated at room temperature for 10 min, and then PO activity was measured by adding 100 μl of 4 mM dopamine as substrate in 50 mM sodium phosphate, pH 6.5. PO activity was measured by detecting increase in absorbance at 470 nm. One unit of PO activity was defined as 1,000 × ∆A470/minute. Three replicates with four different larval plasma samples were examined. Paired one-way ANOVA with Tukey’s multiple comparison as post test was performed in GraphPad Prism.

[3] = system: serpin-3∆N; experiment: Circular dichroism thermal stability of serpin-3∆N and its binary complex with peptide; format: physicochemical, Manduca sexta; conditions: binary complex purified by gel permeation; 10 mM Tris, 5 mM NaCl, pH 8.0; 90 °C highest temperature tested
Experimental: To examine effects of RCL-derived peptides on serpin-3ΔN secondary structure, 600 µL serpin-3ΔN (150 μg) and 1.8 mL Ac-SVAFS-COO^− (25 μmol) were mixed and incubated at 37 °C for 2 h to allow formation of a serpin-peptide binary complex. Then the mixture was subjected to gel permeation chromatography using Superdex 200 10/300 GL ([…]) in 20 mM Tris–HCl, 150 mM NaCl, pH 8.0 to separate binary complex from free peptide. The fractions containing serpin-3ΔN, presumed to be in complex with peptide, were pooled and quantified. Ellipticity of serpin-3ΔN (0.149 mg/ml) or purified binary complex (0.129 mg/ml) in 10 mM Tris, 5 mM NaCl, pH 8.0 was measured in a 0.01 cm cuvette from 190 to 260 nm at 20 °C. The temperature was then increased in 10 °C increments, and the spectra were measured at each temperature from 20 to 90 °C. The ellipticity of the buffer was also recorded and subtracted from that of serpin-3ΔN and binary complex. The data were smoothed by the method of Savitzky-Golay with value of 15[33]. Mean residue ellipticity was calculated as (ellipticity × mean residue weight)/(10 × 0.01 cm × concentration). Three replicates were examined and results were visualized by GraphPad Prism (means ± standard deviation).

[4] = Aqueous solubility of peptides (qualitative); format: physicochemical; conditions: qualitative statement
[5] = system: proPO activation system in plasma (endogenous serpin-3); experiment: proPO activation in plasma mixed directly with peptide; format: biochemical, Manduca sexta; conditions: plasma incubated with pre-dried peptide 1 h room temperature, then M. luteus 10 min; one unit = 0.001 change of OD470 per minute; mean ± SD, n = 4 larvae
Experimental: For an experiment to test the effects of peptide mixed directly to plasma samples, pre-dried Ac-SVAFS-NH2 (25 nmol) or TFE in wells of a 96-well plate were incubated with 5 μl plasma for 1 h at room temperature, followed by addition of 95 μl of 50 mM sodium phosphate buffer, pH 6.5 supplemented with or without 2 μg of M. luteus (Sigma). After incubation for 10 min at room temperature, PO activity was measured as described above. Three replicates with four different larval plasma samples were examined. Statistical analysis was done as described above.

[6] = system: serpin-3∆N; experiment: SDS-PAGE and immunoblot of serpin-3∆N/PAP3 inhibitory complex formation in presence of peptides; format: biochemical, Manduca sexta; conditions: peptide 25 nmol, serpin-3∆N 135 ng 37 °C 2 h, PAP3 108 ng 10 min; reducing SDS-PAGE, serpin-3 antiserum
Experimental: Protein concentration was measured using Coomassie Plus Protein Assay Reagent (Thermo Scientific), with bovine serum albumin as a standard. Protein samples analyzed by SDS polyacrylamide gel electrophoresis were mixed with 2 × or 6 × SDS loading buffer (supplemented with β-mercaptoethanol) followed by heating at 95 °C for 5 min. Samples were loaded into wells of 4–12% Bis–Tris NuPAGE gels (Invitrogen) and separated by electrophoresis using MOPS buffer. The gels were stained using Instant Blue (Expedeon) or transferred to nitrocellulose in a semi-dry transfer cell (Bio-Rad). The presence of PAP3 or serpin-3ΔN on the membrane was detected using rabbit antisera to PAP3[31] or serpin-3[13], followed by goat anti-rabit IgG conjugated to alkaline phosphatase (BioRad) and colorimetric detection of immobilized alkaline phosphatase activity.
Peptides (25 nmol) in TFE or TFE alone as a control were applied to wells of a 96-well plate and allowed to dry (> 1 h). Serpin-3ΔN (135 ng/7.5 µl) was then added to the wells and incubated at 37 °C for 2 h. […] The PAP3 substrate N-acetyl-Ile-Glu-Ala-Arg-p-nitroanilide (IEAR-pNA) at 50 µM in 0.1 M Tris, 0.1 M NaCl, 5 mM CaCl2, pH 8.0 was then added, and residual PAP3 activity was measured by the change of absorbance at 405 nm over 20 min at room temperature. […] Samples were then analyzed by reducing SDS-PAGE and immunoblotting as described above.

[7] = system: serpin-3∆N; experiment: Blocking of serpin-3∆N inhibition of PAP3 by RCL-derived peptides (residual IEARase activity); format: biochemical, Manduca sexta; conditions: serpin-3∆N 135 ng, 37 °C 2 h; for PAP3 activity (percentage of IEARase activity) after treatment of serpin-3∆N with peptide: peptide 25 nmol pre-dried, then PAP3 108 ng 10 min room temperature, IEAR-pNA 50 µM, mean ± SD, n = 3; for blockage of serpin-3∆N inhibition of PAP3: peptide 25 nmol, PAP3 108 ng
Experimental: Peptides (25 nmol) in TFE or TFE alone as a control were applied to wells of a 96-well plate and allowed to dry (> 1 h). Serpin-3ΔN (135 ng/7.5 µl) was then added to the wells and incubated at 37 °C for 2 h. PAP3 (108 ng) supplemented with 18 μg bovine serum albumin (BSA) in 46.5 µl 20 mM Tris, 150 mM NaCl, pH 8.0,was then added to the wells and incubated for 10 min at room temperature. The PAP3 substrate N-acetyl-Ile-Glu-Ala-Arg-p-nitroanilide (IEAR-pNA) at 50 µM in 0.1 M Tris, 0.1 M NaCl, 5 mM CaCl2, pH 8.0 was then added, and residual PAP3 activity was measured by the change of absorbance at 405 nm over 20 min at room temperature. Percentage of IEARase activity was defined as IEARase activity divided by IEARase activity of PAP3 in the absence of serpin. One-way ANOVA with Tukey’s multiple comparison as post test was performed in GraphPad Prism. Samples for analysis by reducing SDS-PAGE and immunoblotting were prepared in a similar way. Peptides or TFE were dried in 1.5 mL microcentrifuge tubes and incubated with 7.5 µl serpin-3ΔN (135 ng) at 37 °C for 2 h, followed by addition of 46.5 µl PAP3 (108 ng) supplemented with 18 µg BSA. and further incubated for 10 min at room temperature. Samples were then analyzed by reducing SDS-PAGE and immunoblotting as described above.

[8] = target: Manduca sexta prophenoloxidase activating protease 3 (PAP3), activated form (Manduca sexta)
[9] = target: Manduca sexta serpin-3∆N (Manduca sexta)
[10] = target: Manduca sexta serpin-3∆N (Manduca sexta); remark: listed apart in the source

Molecule: Ac-SVAFS-COO^−
- time after which inactivation of serpin-3∆N began to occur [1]: ≤ 10 min
- suppression of serpin-3∆N inhibitory activity by 40 min [1]: ~ 100%
- PO activity in M. luteus-stimulated plasma with peptide-treated serpin-3∆N added [2]: 8.7 ± 2.8 unit
- temperature up to which serpin-3∆N in complex with peptide showed little change in CD spectrum [3]: ≥ 90 °C
- aqueous solubility [4]: improved solubility
- aqueous solubility ([4]; listed as five residue peptide SVAFS with only an N-terminal acetylated group): much more soluble

Molecule: Ac-SVAFS-OH [Ac-SVAFS-COO^−]
- time course (0-60 min at 37 °C, 400 nmol peptide) of suppression of serpin-3∆N inhibition of PAP3, read as PAP3 IEARase activity [9]: 100%

Molecule: Ac-SVAFSATQ-NH2 [Ac-SVAFSATQ-NH2]
- residual PAP3 amidase (IEARase) activity after serpin-3∆N was pre-treated with 25 nmol peptide (37 °C, 2 h); the peptide blocks inhibition of PAP3 by serpin-3∆N [10]: 59%

Molecule: Ac-SVAFS-NH2 [Ac-SVAFS-NH2]
- residual PAP3 amidase (IEARase) activity after serpin-3∆N was pre-treated with 25 nmol peptide (37 °C, 2 h); the peptide blocks inhibition of PAP3 by serpin-3∆N [10]: 100%
- time course (0-60 min at 37 °C, 400 nmol peptide) of suppression of serpin-3∆N inhibition of PAP3, read as PAP3 IEARase activity [9]: 100%

Continued, in another order:

- PAP3 activity (percentage of IEARase activity) after treatment of serpin-3∆N with peptide [7]: 100% ± 6%
- blockage of serpin-3∆N inhibition of PAP3 [7]: completely blocked
- aqueous solubility [4]: very low
Molecule: Ac-SVAFS-NH2 [pentapeptide from serpin-3 RCL P14-P10, acetylated and amidated]
- time after which inactivation of serpin-3∆N began to occur [1]: ≤ 10 min
- suppression of serpin-3∆N inhibitory activity by 40 min [1]: ~ 100%
- PO activity in plasma incubated with peptide, after addition of bacteria [5]: 10.7 ± 5.5 unit
- ~75 kDa serpin-3∆N-PAP3 inhibitory complex on immunoblot [6]: absence

- PAP3 activity (percentage of IEARase activity) after treatment of serpin-3∆N with peptide [7]: 59% ± 5%
- blockage of serpin-3∆N inhibition of PAP3 [7]: about 50%
Molecule: Ac-SVAFSATQ-NH2 [octapeptide from serpin-3 RCL P14-P7]

- residual PAP3 amidase (IEARase) activity on IEAR-pNA after 10 min with serpin-3∆N, percent of PAP3 without serpin [8]: 9%
Molecule: Manduca sexta serpin-3∆N (domain or fragment)

Source: article PMC7359039, “Peptides based on the reactive center loop of Manduca sexta serpin-3 block its protease inhibitory function” (Scientific Reports, 2020)
